Measurements published in ChEMBL document CHEMBL5226286, “The application of isatin-based multicomponent-reactions in the quest for new bioactive and druglike molecules” (Eur J Med Chem, 2021).
Values after ≈ are worked out from the molar mass of the structure shown.

What was measured:
HeLa [1] = assay: Cytotoxicity against human HeLa cells; type: functional, cell-based
Aspergillus niger [2] = assay: Antifungal activity against Aspergillus niger; type: functional
Aspergillus flavus = assay: Antifungal activity against Aspergillus flavus; type: functional
Aspergillus fumigatus = assay: Antifungal activity against Aspergillus fumigatus RCMB 02568 assessed as zone of inhibition; type: functional
[3] = system: Syncephalastrum racemosum; assay: Antifungal activity against Syncephalastrum racemosum RCMB 05922 assessed as zone of inhibition; type: functional
Geotrichum candidum = assay: Antifungal activity against Geotrichum candidum RCMB 05097 assessed as zone of inhibition; type: functional
Candida albicans = assay: Antifungal activity against Candida albicans RCMB 05036 assessed as zone of inhibition; type: functional
Escherichia coli [4] = assay: Antibacterial activity against Escherichia coli assessed as zone of inhibition; type: functional
Staphylococcus aureus [5] = assay: Antibacterial activity against Staphylococcus aureus assessed as zone of inhibition; type: functional
Bacillus subtilis = assay: Antibacterial activity against Bacillus subtilis ATCC 465; type: functional
Bacillus pumilus = assay: Antibacterial activity against Bacillus pumilus PTCC 1114; type: functional
Micrococcus luteus = assay: Antibacterial activity against Micrococcus luteus PTCC 1110; type: functional
Streptococcus mutans = assay: Antibacterial activity against Streptococcus mutans PTCC 1601; type: functional
[6] = system: Staphylococcus epidermidis; assay: Antibacterial activity against Staphylococcus epidermidis ATCC 12228; type: functional
Staphylococcus aureus [7] = assay: Antibacterial activity against Staphylococcus aureus ATCC 25923; type: functional
Escherichia coli [8] = assay: Antimicrobial activity against Escherichia coli ATCC 25922; type: functional
Enterococcus faecalis = assay: Antibacterial activity against Enterococcus faecalis ATCC 29737; type: functional
Klebsiella pneumoniae = assay: Antibacterial activity against Klebsiella pneumoniae ATCC 29655; type: functional
Pseudomonas aeruginosa [9] = assay: Antibacterial activity against Pseudomonas aeruginosa ATCC 85327; type: functional
T47D = assay: Antiproliferative activity against human T47D cells by MTT reduction assay; type: functional, cell-based
MDA-MB-231 = assay: Antiproliferative activity against human MDA-MB-231 cells by MTT reduction assay; type: functional, cell-based
MDA-MB-435 = assay: Antiproliferative activity against human MDA-MB-435 cells; type: functional, cell-based
ECa-109 cell line = assay: Antiproliferative activity against human EC109 cells; type: functional, cell-based
SMMC-7721 = assay: Antiproliferative activity against human SMMC-7721 cells; type: functional, cell-based
MGC-803 = assay: Antiproliferative activity against human MGC-803 cells; type: functional, cell-based
PC-3 = assay: Antiproliferative activity against human PC-3 cells; type: functional, cell-based
LNCaP = assay: Antiproliferative activity against human LNCaP cells; type: functional, cell-based
Aspergillus niger [10] = assay: Antifungal activity against Aspergillus niger assessed as zone of inhibition at 25 ug/ml; type: functional; details: read-out: DIZ
Candida metapsilosis = assay: Antifungal activity against Candida metapsilosis assessed as zone of inhibition at 25 ug/ml; type: functional; details: Lodderomyces metapsilosis, read-out: DIZ
Salmonella sp. = assay: Antibacterial activity against Salmonella sp. NCIM 2501 by microdilution broth method; type: functional
Proteus vulgaris = assay: Antibacterial activity against Proteus vulgaris NCIM 2813 by microdilution broth method; type: functional
Pseudomonas aeruginosa [11] = assay: Antibacterial activity against Pseudomonas aeruginosa NCIM 5029 by microdilution broth method; type: functional
Escherichia coli [12] = assay: Antibacterial activity against Escherichia coli NCIM 2931 by microdilution broth method; type: functional
Staphylococcus aureus [13] = assay: Antibacterial activity against Staphylococcus aureus NCIM5021 by microdilution broth method; type: functional
A549 [14] = assay: Cytotoxicity against human A549 cells incubated for 48 hrs by MTT assay; type: functional, cell-based; details: A549, 48 h
HeLa [15] = assay: Cytotoxicity against human HeLa cells incubated for 48 hrs by MTT assay; type: functional, cell-based
MCF7 [16] = assay: Cytotoxicity against human MCF7 cells incubated for 48 hrs by MTT assay; type: functional, cell-based; details: MCF7, 48 h
DU-145 = assay: Cytotoxicity against human DU-145 cells incubated for 48 hrs by MTT assay; type: functional, cell-based; details: DU-145, 48 h
A549 [17] = assay: Anticancer activity against human A549 cells by MTT assay; type: functional, cell-based
K562 = assay: Anticancer activity against human K562 cells by MTT assay; type: functional, cell-based
Acetylcholinesterase = Acetylcholinesterase (Homo sapiens, UniProt P22303); assay: Inhibition of AChE (unknown origin)
Cholinesterase = Cholinesterase (Homo sapiens, UniProt P06276); assay: Inhibition of BChE (unknown origin)
MCF7 [18] = assay: Antiproliferative activity against human MCF7 cells by MTT reduction assay; type: functional, cell-based

Acetylcholinesterase, sequence (P22303 whole entry): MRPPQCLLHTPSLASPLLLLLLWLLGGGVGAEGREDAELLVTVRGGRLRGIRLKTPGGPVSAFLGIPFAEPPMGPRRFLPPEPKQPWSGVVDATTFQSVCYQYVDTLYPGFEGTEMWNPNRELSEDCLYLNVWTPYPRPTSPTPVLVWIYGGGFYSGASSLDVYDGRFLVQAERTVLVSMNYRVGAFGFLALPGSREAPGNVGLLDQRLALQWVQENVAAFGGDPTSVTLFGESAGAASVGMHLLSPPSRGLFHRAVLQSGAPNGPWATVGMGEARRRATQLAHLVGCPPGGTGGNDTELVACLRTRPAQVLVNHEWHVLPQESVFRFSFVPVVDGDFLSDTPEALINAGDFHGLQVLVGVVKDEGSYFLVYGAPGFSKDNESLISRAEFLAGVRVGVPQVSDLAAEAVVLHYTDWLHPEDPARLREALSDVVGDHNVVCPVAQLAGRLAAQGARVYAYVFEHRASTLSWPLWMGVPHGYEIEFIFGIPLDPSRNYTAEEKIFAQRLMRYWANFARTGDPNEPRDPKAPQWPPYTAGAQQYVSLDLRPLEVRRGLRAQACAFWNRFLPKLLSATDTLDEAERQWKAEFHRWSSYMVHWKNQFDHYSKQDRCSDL
Cholinesterase, sequence (P06276 whole entry): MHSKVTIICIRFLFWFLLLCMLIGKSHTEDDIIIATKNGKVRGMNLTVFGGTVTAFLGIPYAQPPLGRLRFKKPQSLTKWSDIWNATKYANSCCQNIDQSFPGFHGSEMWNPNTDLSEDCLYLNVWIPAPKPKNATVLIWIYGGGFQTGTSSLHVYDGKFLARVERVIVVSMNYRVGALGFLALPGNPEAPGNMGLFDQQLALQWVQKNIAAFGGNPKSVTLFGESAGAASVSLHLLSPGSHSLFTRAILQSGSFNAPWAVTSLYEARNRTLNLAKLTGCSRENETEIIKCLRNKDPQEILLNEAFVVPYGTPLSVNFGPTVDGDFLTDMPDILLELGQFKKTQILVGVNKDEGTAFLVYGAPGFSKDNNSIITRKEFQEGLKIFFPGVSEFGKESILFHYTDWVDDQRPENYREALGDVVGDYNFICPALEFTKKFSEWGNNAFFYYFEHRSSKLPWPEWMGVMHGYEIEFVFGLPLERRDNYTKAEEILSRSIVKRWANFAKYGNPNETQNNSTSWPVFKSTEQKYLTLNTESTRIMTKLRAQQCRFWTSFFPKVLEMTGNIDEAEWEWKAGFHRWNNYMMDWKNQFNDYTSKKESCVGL

CCN(CC)CCNC(=O)c1c(C)[nH]c(/C=C2\C(=O)Nc3ccc(F)cc32)c1C [SUNITINIB]
IC50 (HeLa [1]): > 30 µM

OC(Cn1cncn1)(Cn1cncn1)c1ccc(F)cc1F [FLUCONAZOLE]
MIC (Aspergillus niger [2]): 20 µg/mL (≈ 65.3 µM)
MIC (Aspergillus flavus): 20 µg/mL (≈ 65.3 µM)
diameter of the inhibition zone (DIZ) (Aspergillus fumigatus): 25 mm
diameter of the inhibition zone (DIZ) [3]: 24.1 mm
diameter of the inhibition zone (DIZ) (Geotrichum candidum): 30 mm
diameter of the inhibition zone (DIZ) (Candida albicans): 28 mm

CCOC1=Nc2ccccc2/C1=C\C(=O)c1ccc(Cl)cc1
diameter of the inhibition zone (DIZ) (Escherichia coli [4]): 6 mm
diameter of the inhibition zone (DIZ) (Staphylococcus aureus [5]): 6 mm

O=C1c2c(Cl)cccc2NC2(C(=O)Nc3ccc([N+](=O)[O-])cc32)N1Nc1ccccc1 (configuration not stated)
MIC (Bacillus subtilis): < 2 µg/mL
MIC (Bacillus pumilus): < 2 µg/mL
MIC (Micrococcus luteus): 2 µg/mL (≈ 4.59 µM)
MIC (Streptococcus mutans): 8 µg/mL (≈ 18.4 µM)
MIC [6]: 2 µg/mL (≈ 4.59 µM)
MIC (Staphylococcus aureus [7]): 2 µg/mL (≈ 4.59 µM)
MIC (Escherichia coli [8]): < 2 µg/mL
MIC (Enterococcus faecalis): 8 µg/mL (≈ 18.4 µM)
MIC (Klebsiella pneumoniae): 16 µg/mL (≈ 36.7 µM)
MIC (Pseudomonas aeruginosa [9]): 16 µg/mL (≈ 36.7 µM)

CC/C(=C(\c1ccccc1)c1ccc(OCCN(C)C)cc1)c1ccccc1 [TAMOXIFEN]
IC50 (T47D): 14.2 µM
IC50 (MDA-MB-231): 14.5 µM
IC50 (MDA-MB-435): 0.1 µM

O=C1c2c(Cl)cccc2NC2(C(=O)Nc3ccc(Br)cc32)N1Nc1ccccc1 (configuration not stated)
MIC (Bacillus subtilis): 4 µg/mL (≈ 8.52 µM)
MIC (Bacillus pumilus): < 2 µg/mL
MIC (Micrococcus luteus): 4 µg/mL (≈ 8.52 µM)
MIC (Streptococcus mutans): < 2 µg/mL
MIC [6]: 2 µg/mL (≈ 4.26 µM)
MIC (Staphylococcus aureus [7]): 2 µg/mL (≈ 4.26 µM)
MIC (Escherichia coli [8]): < 2 µg/mL
MIC (Enterococcus faecalis): < 2 µg/mL
MIC (Klebsiella pneumoniae): 4 µg/mL (≈ 8.52 µM)
MIC (Pseudomonas aeruginosa [9]): 8 µg/mL (≈ 17 µM)

C[C@]12CC[C@H](O)CC1=CCC1C2CC[C@@]2(C)C1CC[C@@H]2C1=CC2(C(=O)N(Cc3ccc(Cl)c(Cl)c3)c3ccccc32)C(C#N)=C(N)N1 (some centres not stated)
IC50 (ECa-109 cell line): 0.3 µM
IC50 (SMMC-7721): > 128 µM
IC50 (MGC-803): > 128 µM

O=C1c2ccccc2NC2(C(=O)Nc3ccc([N+](=O)[O-])cc32)N1Nc1ccccc1 (configuration not stated)
MIC (Bacillus subtilis): 4 µg/mL (≈ 9.97 µM)
MIC (Bacillus pumilus): 4 µg/mL (≈ 9.97 µM)
MIC (Micrococcus luteus): 8 µg/mL (≈ 19.9 µM)
MIC (Streptococcus mutans): < 2 µg/mL
MIC [6]: 4 µg/mL (≈ 9.97 µM)
MIC (Staphylococcus aureus [7]): 4 µg/mL (≈ 9.97 µM)
MIC (Escherichia coli [8]): 4 µg/mL (≈ 9.97 µM)
MIC (Enterococcus faecalis): 16 µg/mL (≈ 39.9 µM)
MIC (Klebsiella pneumoniae): 8 µg/mL (≈ 19.9 µM)
MIC (Pseudomonas aeruginosa [9]): 32 µg/mL (≈ 79.7 µM)

O=C1c2ccccc2C2Oc3c(c(=O)oc4ccccc34)C3(C(=O)Nc4ccc(Br)cc43)C12 (configuration not stated)
IC50 (PC-3): 0.03 µM
IC50 (LNCaP): 1.9 µM

CCOC1=Nc2ccc(Br)cc2/C1=C\C(=O)c1ccccc1O
zone of inhibition at 25 µg/mL (Aspergillus niger [10]): 11 mm
zone of inhibition at 25 µg/mL (Candida metapsilosis): 11 mm

O=C1Nc2ccccc2[C@@]1(O)[C@@]1(OCc2ccc(Br)cc2)C(=O)Nc2ccccc21
MIC (Salmonella sp.): 0.034 µg/mL (≈ 0.0731 µM)
MIC (Proteus vulgaris): 0.067 µg/mL (≈ 0.144 µM)
MIC (Pseudomonas aeruginosa [11]): 0.067 µg/mL (≈ 0.144 µM)
MIC (Escherichia coli [12]): 0.034 µg/mL (≈ 0.0731 µM)
MIC (Staphylococcus aureus [13]): 0.067 µg/mL (≈ 0.144 µM)

COC1=CC(=O)C[C@@H](C)[C@]12Oc1c(Cl)c(OC)cc(OC)c1C2=O [GRISEOFULVIN]
zone of inhibition at 25 µg/mL (Aspergillus niger [10]): 10 mm
zone of inhibition at 25 µg/mL (Candida metapsilosis): 10 mm

O=C1OCC2=C1C1(Nc3ccccc3N2)C(=O)N(Cc2ccccc2)c2ccccc21 (configuration not stated)
IC50 (A549 [14]): 1.3 µM
IC50 (HeLa [15]): 2.3 µM
IC50 (MCF7 [16]): 2.2 µM
IC50 (DU-145): 1.1 µM

COc1ccc(CO[C@]2([C@@]3(O)C(=O)Nc4ccccc43)C(=O)Nc3ccccc32)cc1
MIC (Salmonella sp.): 0.038 µg/mL (≈ 0.0913 µM)
MIC (Proteus vulgaris): 0.075 µg/mL (≈ 0.18 µM)
MIC (Pseudomonas aeruginosa [11]): 0.038 µg/mL (≈ 0.0913 µM)
MIC (Escherichia coli [12]): 0.038 µg/mL (≈ 0.0913 µM)
MIC (Staphylococcus aureus [13]): 0.075 µg/mL (≈ 0.18 µM)

COc1cc([C@@H]2c3cc4c(cc3[C@@H](O[C@@H]3O[C@@H]5CO[C@@H](C)O[C@H]5[C@H](O)[C@H]3O)[C@H]3COC(=O)[C@H]23)OCO4)cc(OC)c1O [ETOPOSIDE]
IC50 (A549 [14]): 2.2 µM
IC50 (HeLa [15]): 1 µM
IC50 (MCF7 [16]): 1.6 µM
IC50 (DU-145): 2.1 µM

CC(C)=CC(=O)[C@H]1[C@H](c2ccc(Br)cc2)CN(C)[C@]12C(=O)Nc1ccc(C)cc12
IC50 (A549 [17]): 21.1 µM
IC50 (K562): 5.8 µM

COc1cc2c(cc1OC)C(=O)[C@]1(C2)[C@H](c2cccc([N+](=O)[O-])c2)[C@H](Cc2c[nH]c3ccccc23)NC12C(=O)Nc1ccccc12 (some centres not stated)
IC50 (Acetylcholinesterase): 1.89 µM
IC50 (Cholinesterase): 28.4 µM

O=C(c1ccc(OCCN2CCCC2)cc1)[C@H]1[C@H](c2ccccc2)C2CS[C@H](c3ccccc3)N2C12C(=O)Nc1ccc(F)cc12 (some centres not stated)
IC50 (MCF7 [18]): 5.4 µM
IC50 (T47D): 6.2 µM
IC50 (MDA-MB-231): 5.8 µM

Cc1ccc([C@H]2[C@@]3(SC(=S)NC3=O)C3CCCN3[C@@]23C(=O)Nc2ccccc23)cc1 (some centres not stated)
diameter of the inhibition zone (DIZ) (Aspergillus fumigatus): 18 mm
diameter of the inhibition zone (DIZ) [3]: 19 mm
diameter of the inhibition zone (DIZ) (Geotrichum candidum): 27 mm
diameter of the inhibition zone (DIZ) (Candida albicans): 27 mm

CCOC1=Nc2ccc(Br)cc2/C1=C\C(=O)c1cccc2ccccc12
diameter of the inhibition zone (DIZ) (Escherichia coli [4]): 6 mm
diameter of the inhibition zone (DIZ) (Staphylococcus aureus [5]): 6 mm
